Measured values as given in US9988644B2, “Compounds for improved viral transduction” (bluebird bio, Inc., priority 2011, dated 2018).

Experiments:
[1] = tested on: CD34+ cells; assay: Time-course and dose-response of dmPGE2 in promoting viral transduction (GFP+ lentivirus, flow cytometry); type: cell-based, human; conditions: GFP+ lentivirus MOI 25; for percentage of cells positive for GFP, Pre-Stim w/PGE2 Minus 2 Hr: 22-24 hours of culture; for percentage of cells positive for GFP, Pre-Stim w/PGE2 Minus 1 Hr: 23-24 hours of culture; for percentage of cells positive for GFP, Virus and PGE2 Plus 1 Hr: 24-25 hours of culture; for percentage of cells positive for GFP, Virus and PGE2 Plus 2 Hr: 24-26 hours of culture; for percentage of cells positive for GFP, Virus and PGE2 Plus 4 Hr: 24-28 hours of culture; for percentage of cells positive for GFP, Virus and PGE2 24 Hr: 24-48 hours of culture
Procedure: MCD-34+ cells were thawed and pre-stimulated with SCF, TPO, FltL and IL3, then transduced with GFP+ lentivirus at a multiplicity of infection of 25. Cells were exposed to dmPGE2 during the viral transduction step (24-25 hours of culture; 24-26 hours of culture; 24-28 hours of culture; or 24-48 hours of culture) and then washed and analyzed by flow cytometry after approximately 1 week in culture. Alternatively, cells were exposed to dmPGE2 during the pre-stimulation step (22-24 hours of culture; 23-24 hours of culture).

[2] = tested on: CD34+ cells; assay: FACS staining for ALD after transduction with ALD (ABCD1)-expressing lentivirus in presence of dmPGE2; type: cell-based, human; conditions: ABCD1 MOI 25
Procedure: One vial of CD34+ cells (AllCells) were thawed by incubating at 37° C. for 1-2 minutes and contents were transferred to 10 mL Stem Cell Growth Media (hereafter referred to as SCGM) in a 15-mL conical tube. Cells were spun for 5 minutes at 1500 RPM in a standard tabletop centrifuge, resuspended in 10 mL SCGM and counted on a hemacytometer. A volume correlating with an appropriate number of cells was transferred to a fresh 15-mL conical tube, and again spun for 5 minutes at 1500 RPM. Cells were resuspended to the desired cell concentration in SCGM+1× cytokines (100 ng/mL SCF, 100 ng/mL TPO, 100 ng/mL FltL, and 30 ng/mL IL-3), and plated on a sterile non-adherent surface at 37° C. in a standard humidified tissue culture incubator (5% CO2).
Pre-stimulated cells (Example 1) were counted after 18-24 hours of culture. The cells were collected and spun for 5 minutes at 1500 RPM. 1.2×10^6 pre-stimulated CD34^+ cells were resuspended in 60 uL 10× cytokines (1000 ng/mL SCF, 1000 ng/mL TPO, 1000 ng/mL FltL, and 300 ng/mL IL-3), 7.8 uL protamine sulfate, 111 uL viral supernatant, and 361.2 uL SCGM. 90 uL cell/virus suspension (about 200,000 cells) was added to each well of a standard non-adherent 96-well plate. dmPGE2 was added during this viral transduction step at a final concentration of 100 uM, 50 uM, 25 uM, 12.5 uM, 1 uM, or 0 uM.
Aliquots of 10 mM dmPGE2 in DMSO were prepared from 1 mg previously processed dmPGE2 (Cayman Chemicals). Briefly, air was pipetted into the vial of dmPGE2 until methyl acetate was evaporated. 263 uL DMSO was added to the PGE2 remaining in the vial, and aliquots of 25 uL were added to 1.5 mL Eppendorf tubes and stored at −80° C. 10× working stock solutions were prepared by serial dilution of dmPGE2 in SCGM, and were then added to cells at appropriate working concentrations, according to Table 2. Cells were then incubated at 37° C. in a standard humidified tissue culture incubator (5% CO2).
After 24 hours of culture with virus and dmPGE2, cells were washed prior to subsequent functional validation assays. Washing was performed by transferring cells to a 96-well U-bottom plate and spinning for 5 minutes at 1500 RPM in a standard tabletop centrifuge. Media was aspirated and cells were resuspended in 200 uL SCGM. Cells were spun again for 5 minutes at 1500 RPM and media was aspirated. Cells were again resuspended in 200 uL SCGM then spun for 5 minutes at 1500 RPM, and again the media was aspirated. Particular functional validation assays are described below.
Washed cells were resuspended in 200 uL SCGM+1× cytokines (as described in Example 1) and transferred to a standard 12-well non-adherent tissue culture plate containing an additional 800 uL SCGM+1× cytokines Cells were maintained for an additional 6 days in a standard humidified tissue culture incubator (5% CO2) and then subjected Vector Copy Number analysis (Example 5) and FACS analysis. For FACS analysis, cells were assayed for the presence of a virally-encoded transgene, green fluorescent protein (GFP). The frequency of the virally-labeled cells within the pool of cultured cells was quantified as the frequency of GFP+ cells within the population. The mean fluorescence intensity of labeled cells was quantified.
Tables 3A-C indicate the dose-response of dmPGE2 in promoting viral transduction of CD34+ cells for three separate experiments. […] Cells were then washed and analyzed by flow cytometry and PCR after approximately 1 week in culture. […]

[3] = dmPGE2 1 uM during pre-stimulation
[4] = dmPGE2 12.5 uM during pre-stimulation
[5] = dmPGE2 25 uM during pre-stimulation
[6] = dmPGE2 50 uM during pre-stimulation
[7] = dmPGE2 100 uM during pre-stimulation

Compound: CCCCC(C)(C)[C@H](O)/C=C/[C@H]1[C@H](O)CC(=O)[C@@H]1C/C=C\CCCC(=O)O [dmPGE2, 16,16-dimethyl PGE2]
- percentage of cells positive for GFP, Pre-Stim w/PGE2 Minus 2 Hr [1, 3]: 25.74%
- percentage of cells positive for GFP, Pre-Stim w/PGE2 Minus 1 Hr [1, 3]: 22.29%
- percentage of cells positive for GFP, Virus and PGE2 Plus 1 Hr ([1]; dmPGE2 1 uM): 2.94%
- percentage of cells positive for GFP, Virus and PGE2 Plus 2 Hr ([1]; dmPGE2 1 uM): 7.17%
- percentage of cells positive for GFP, Virus and PGE2 Plus 4 Hr ([1]; dmPGE2 1 uM): 21.10%
- percentage of cells positive for GFP, Virus and PGE2 24 Hr ([1]; dmPGE2 1 uM): 32.03%
- percentage of cells positive for GFP, Pre-Stim w/PGE2 Minus 2 Hr [1, 4]: 30.64%
- percentage of cells positive for GFP, Pre-Stim w/PGE2 Minus 1 Hr [1, 4]: 22.13%
- percentage of cells positive for GFP, Virus and PGE2 Plus 1 Hr ([1]; dmPGE2 12.5 uM): 1.97%
- percentage of cells positive for GFP, Virus and PGE2 Plus 2 Hr ([1]; dmPGE2 12.5 uM): 5.32%
- percentage of cells positive for GFP, Virus and PGE2 Plus 4 Hr ([1]; dmPGE2 12.5 uM): 28.08%
- percentage of cells positive for GFP, Virus and PGE2 24 Hr ([1]; dmPGE2 12.5 uM): 47.42%
- percentage of cells positive for GFP, Pre-Stim w/PGE2 Minus 2 Hr [1, 5]: 31.90%
- percentage of cells positive for GFP, Pre-Stim w/PGE2 Minus 1 Hr [1, 5]: 24.05%
- percentage of cells positive for GFP, Virus and PGE2 Plus 1 Hr ([1]; dmPGE2 25 uM): 1.76%
- percentage of cells positive for GFP, Virus and PGE2 Plus 2 Hr ([1]; dmPGE2 25 uM): 4.76%
- percentage of cells positive for GFP, Virus and PGE2 Plus 4 Hr ([1]; dmPGE2 25 uM): 27.46%
- percentage of cells positive for GFP, Virus and PGE2 24 Hr ([1]; dmPGE2 25 uM): 50.69%
- percentage of cells positive for GFP, Pre-Stim w/PGE2 Minus 2 Hr [1, 6]: 31.85%
- percentage of cells positive for GFP, Pre-Stim w/PGE2 Minus 1 Hr [1, 6]: 22.98%
- percentage of cells positive for GFP, Virus and PGE2 Plus 1 Hr ([1]; dmPGE2 50 uM): 1.85%
- percentage of cells positive for GFP, Virus and PGE2 Plus 2 Hr ([1]; dmPGE2 50 uM): 4.23%
- percentage of cells positive for GFP, Virus and PGE2 Plus 4 Hr ([1]; dmPGE2 50 uM): 27.45%
- percentage of cells positive for GFP, Virus and PGE2 24 Hr ([1]; dmPGE2 50 uM): 54.63%
- percentage of cells positive for GFP, Pre-Stim w/PGE2 Minus 2 Hr [1, 7]: 34.85%
- percentage of cells positive for GFP, Pre-Stim w/PGE2 Minus 1 Hr [1, 7]: 25.14%
- percentage of cells positive for GFP, Virus and PGE2 Plus 1 Hr ([1]; dmPGE2 100 uM): 2.48%
- percentage of cells positive for GFP, Virus and PGE2 Plus 2 Hr ([1]; dmPGE2 100 uM): 4.02%
- percentage of cells positive for GFP, Virus and PGE2 Plus 4 Hr ([1]; dmPGE2 100 uM): 21.57%
- percentage of cells positive for GFP, Virus and PGE2 24 Hr ([1]; dmPGE2 100 uM): 76.44%
- % Positive (ALD via FACS staining) ([2]; dmPGE2 1 uM during transduction (24-48 hours of culture)): 34.13%
- % Positive (ALD via FACS staining) ([2]; dmPGE2 12.5 uM during transduction (24-48 hours of culture)): 45.36%
- % Positive (ALD via FACS staining) ([2]; dmPGE2 25 uM during transduction (24-48 hours of culture)): 43.76%
- % Positive (ALD via FACS staining) ([2]; dmPGE2 50 uM during transduction (24-48 hours of culture)): 56.10%
- % Positive (ALD via FACS staining) ([2]; dmPGE2 100 uM during transduction (24-48 hours of culture)): 72.26%
